Data on five compounds can be found in PMC5584945, “Evaluation of robenidine analog NCL195 as a novel broad-spectrum antibacterial agent” (PLoS ONE, 2017).

Values after ≈ are worked out from the molar mass of the structure shown. “Also recorded” adds a separate entry of the source. Read-outs that look alike come from different tables or passages of the source.

In series [1] the test system is S. aureus Xen29. The experiment in a line: Point of resistance assay (serial passage).
In series [2] the test system is S. aureus Xen29. Description: Minimum bactericidal concentration (MBC). The class given is cell-based. The conditions noted are these: Staphylococcus aureus, 99.9% colony count reduction. The procedure:
The tray was covered with Breathe-Easy sealing membrane (Z380059, Sigma-Aldrich) and incubated for 16 h overnight at 35°C in an EnSpire Multimode Plate Reader 2300 (PerkinElmer), with data collected every 20 min and 2 sec agitation at 60 rpm between data (A600 nm) acquisitions. The experiment was repeated using the luminescent D39LUX strain on a Cytation 5 Cell Imaging Multi-Mode Reader (BioTek) using IsoplateTM-96 F tray PerkinElmer, 6005020). Kill kinetic assays on S. aureus Xen29 was carried out essentially as described for MIC determination on Cytation 5 Cell Imaging Multi-Mode Reader.
In order to determine the MBC of each compound against S. pneumoniae D39 or S. aureus Xen29, 10 μl aliquots from each duplicate well from the MIC assays (starting from the MIC for each compound) was inoculated onto a HBA plate and incubated at 37°C (+ 5% CO2 for S. pneumoniae D39). Plates were examined at 24 and 48 h and the MBC was recorded as the lowest concentration of each test compound at which a 99.9% colony count reduction was observed on the plate.

Series [3] has as its system S. pneumoniae D39. Description: Membrane potential, DiOC2(3) fluorescence. Format: cell-based, Streptococcus pneumoniae. Conditions: 16 μg/ml, pre-incubated 5 min; versus untreated and ampicillin. The procedure: To further examine the mechanism underlying the perturbation of the cell membrane of S. pneumoniae or S. aureus by the NCL compounds, the membrane potential of the cells was measured by fluorescence spectrometry using (DiOC2(3), essentially as described previously. Briefly, […] cells from an overnight HBA plate were grown in Todd-Hewitt broth supplemented with 1% yeast extract (THY) at 37°C, 5% CO2 until A600 nm = 0.5. […] The cuvette was then placed in a LS 55 Fluorescence Spectrometer (PerkinElmer) set at Ex. 488 nm/Em. 620 nm, with excitation and emission slit widths at 5 nm and 7 nm, respectively). […] All assays were performed at least twice.

Series [4] is described as follows: LogD by gradient HPLC chromatographic method. Format: physicochemical. The conditions noted are these: pH 7.4.
Series [5] relates to S. pneumoniae D39. The experiment in a line: Time-dependent killing assay. Format: cell-based, Streptococcus pneumoniae. The procedure:
Time kill assays were performed (in duplicate) essentially as described previously with slight modifications. Briefly, a few colonies of luminescent S. pneumoniae strain D39LUX or luminescent S. aureus ATCC 12600 (Xen29) from an overnight HBA were emulsified in normal saline and adjusted to A600 nm = 0.10 (equivalent to approx. 5 × 10^7 c.f.u. per ml) and the bacterial suspension further diluted 1:20 in saline. […] The compounds were serially diluted in 100% DMSO at 100× the final desired concentration and 100 μl of appropriate concentrations added to each 10 ml preparation. Duplicate cultures were incubated at 37°C (+ 5% CO2 for S. pneumoniae D39), with samples withdrawn at 0, 0.5, 1, 2, 4, 6, 8 and 24 h, serially diluted 10-fold and plated on HBA overnight at 37°C (+ 5% CO2 for S. pneumoniae D39) for bacterial enumeration.

Series [6] can be described thus: Pharmacokinetics after IV administration. The class given is in vivo, mouse. Conditions: for clearance: read-out: Plasma CL; for half-life: read-out: Apparent t½ (converted); for Vd: read-out: Plasma VSS. The procedure: (§1) Mice had access to food and water ad libitum throughout the pre- and post-dose sampling period. The Animal Ethics Committee of the Monash Institute of Pharmaceutical Sciences reviewed and approved all animal PK experiments (approval number MIPS.2013.33). The PK studies were conducted in compliance with the Australian Code of Practice for the Care and Use of Animals for Scientific Purposes (7th Edition 2004). […] For both the IV and IP administration, a maximum of two samples were obtained from each mouse, with samples being taken either via submandibular bleed (approximately 120 μl; conscious sampling) or terminal cardiac puncture (0.6 ml; under inhaled Isoflurane anesthesia). No urine samples were collected as mice were housed in bedded cages during the study. […] Mice were humanely sacrificed by cervical dislocation while under anaesthesia (using gaseous isoflurane) at the end of experiments. Blood was collected directly into polypropylene Eppendorf tubes containing heparin as anti-coagulant, and stabilization cocktail (containing Complete (a protease inhibitor cocktail with EDTA) and potassium fluoride) to minimize the potential for ex vivo degradation of the test compounds in blood/plasma samples. Once collected, blood samples were centrifuged immediately, supernatant plasma was removed, and stored at either -80°C (for the IV exposure) or at -20°C (for the IP exposure) until analysis by liquid chromatography-mass spectrometry (LC-MS). Following protein precipitation with acetonitrile, thawed plasma samples were analyzed by LC-MS (Waters Micromass Quattro Premier coupled to a Waters Acquity UPLC) using positive electrospray ionization operating in MRM mode.

The next series has as its system A. anitratus. Description: MIC, broth micro-dilution. Format: cell-based. Conditions: Acinetobacter calcoaceticus; one A. anitratus isolate; absence of EDTA. The procedure:
(§2) MICs for NCL812 and its analogs (serial two-fold dilutions commencing at 128 μg/ml) were determined (in duplicate) in round bottom 96-well microtitre trays (Sarstedt 82.1582.001), using the broth micro-dilution method recommended by the Clinical and Laboratory Standards Institute (CLSI). […] MIC50, MIC90 and MIC range for NCL812, NCL195 and NCL219 were calculated against each S. pneumoniae, S. aureus or VRE isolate. To assess the potential activity of NCL195 against Gram-negative bacteria, MICs against Acinetobacter spp, E. coli, K. pneumoniae, P. aeruginosa, Proteus spp and Neisseria meningitidis were performed in the presence or absence of 0.08 mM-20 mM EDTA in a standard checkerboard assay.

Another series deals with A. calcoaceticus. Description: MIC, broth micro-dilution. The class given is cell-based. The conditions noted are these: 8 A. calcoaceticus isolates; absence of EDTA. The procedure: as §2
Series [7] concerns A. baumannii, E. coli, K. pneumoniae and P. aeruginosa. Description: MIC with sub-inhibitory EDTA or polymyxin B, Gram-negative panel. Format: cell-based. The procedure: as §2
Series [8] is described as follows: Pharmacokinetics after IP administration. The class given is in vivo, mouse. Conditions: mice, IP 43 mg/kg. The procedure: as §1
Setting [9] is: male Swiss outbred mice, IV 5 mg/kg, 5 mg/kg.
The mark [10] stands for this setting: male, Swiss (outbred), mouse, plasma, iv, 5 mg/kg, male Swiss outbred mice, read-out: AUC0-inf.
Where [11] appears, read: male, Swiss (outbred), mouse, plasma, iv, 5 mg/kg, male Swiss outbred mice.
Where [12] appears, read: mouse, plasma, male Swiss outbred mice, IV 5 mg/kg.

As usually defined, the MBC is the lowest tested concentration that kills the bacteria rather than only halting them. Read a high MBC as weaker bactericidal potency. For orientation: chromatographic logD means lipophilicity estimated from chromatographic retention. Read a high chromatographic logD as higher lipophilicity. As usually defined, the MIC is the smallest concentration in the dilution series that meets the test's criterion for growth inhibition.

Regarding `CCCCCCCCCC(=O)N[C@@H](Cc1c[nH]c2ccccc12)C(=O)N[C@H](CC(N)=O)C(=O)N[C@@H](CC(=O)O)C(=O)N[C@@H]1C(=O)NCC(=O)N[C@@H](CCCN)C(=O)N[C@@H](CC(=O)O)C(=O)N[C@H](C)C(=O)N[C@@H](CC(=O)O)C(=O)NCC(=O)N[C@H](CO)C(=O)N[C@@H]([C@H](C)CC(=O)O)C(=O)N[C@@H](CC(=O)c2ccccc2N)C(=O)O[C@@H]1C` [Daptomycin, daptomycin], the “Resistance (fold MIC) over serial passage” value in the series on S. aureus Xen29 [1] (by day 12 of the serial passage) came out at 8 ×MIC. Moreover, in the series on S. aureus Xen29 [1] (daily serial passage), the “Day of serial passage by which resistance developed” value came out at 5 days.
With `C/C(=N\NC(=N)N/N=C(\C)c1ccc(C(C)(C)C)cc1)c1ccc(C(C)(C)C)cc1` [NCL219, (E)-N'-((E)-1-(4-(tert-butyl)phenyl)ethylidene)-2-(1-(4-(tert-butyl)phenyl)ethylidene)hydrazine-1-carboximidhydrazide], the MBC in the series on S. aureus Xen29 [2] came to 16 µg/mL (≈ 39.4 µM). Moreover, the “Effect on generated membrane potential” value in the series with S. pneumoniae D39 [3] is listed as “large reduction in the magnitude of the generated membrane potential”. Besides, the chromatographic logD in [4] is > 5.3.
On to `CC1(C)S[C@@H]2[C@H](NC(=O)[C@H](N)c3ccccc3)C(=O)N2[C@H]1C(=O)O` [Ampicillin], for which the “Time to reduce the population below the limit of detection” value in the series on S. pneumoniae D39 [5] (4× MIC) was 8 h.
The compound `Cl.N=C(NN=Cc1ccc(Cl)cc1)NN=Cc1ccc(Cl)cc1` [NCL812, 2,2'-bis[(4-chlorophenyl)methylene] carbonimidic dihydrazide hydrochloride] returned an MBC with S. aureus Xen29 [2] of 4 µg/mL. For the same compound, the “Effect on generated membrane potential” value in the series on S. pneumoniae D39 [3] is reported as “large reduction in the magnitude of the generated membrane potential”. This compound showed a chromatographic logD in [4] of 4.5. In [6] (setting [9]), the AUC(0-inf) is on record as ~27.9^ a h*μM and the “Plasma CL” value was ~9.5^ a mL/min/kg. Also, the AUC(0-inf) in [6] (setting [10]) worked out at 27.9 µM·h. Also, in [6] (setting [11]), the clearance is 9.5 mL/min/kg. In addition, the “Adverse signs after parenteral (IV) administration” value in series [6] (mice, IV 5 mg/kg, 5 mg/kg) is recorded as “adverse neurological signs; also recorded: adverse clinical signs”. In series [6] (setting [12]), the half-life is ~8.2 h and the Vd is ~5.9 L/kg.
As to `Cc1ccc(/C=N/Nc2cc(N/N=C/c3ccc(C)cc3)nc(N)n2)cc1` [NCL195, 4,6-bis(2-((E)-4-methylbenzylidene)hydrazinyl)pyrimidin-2-amine], the MIC in the series on A. anitratus was 4 µg/mL; in series [7] (in the presence of sub-inhibitory concentrations of EDTA) it was 0.25 to 8 µg/mL; in series [7] (in the presence of sub-inhibitory concentrations of polymyxin B) it was 0.25 to 1 µg/mL. In addition, in the series with A. calcoaceticus, the MIC range is 4 to 32 µg/mL. In the series with S. aureus Xen29 [2], the MBC is 2 µg/mL (≈ 5.56 µM). The “Time to reduce the population below the limit of detection” value is on record as 6 h with S. pneumoniae D39 [5] (2× MIC) and 4 h with S. pneumoniae D39 [5] (4× MIC). In the series on S. pneumoniae D39 [3], the “Effect on generated membrane potential” value is on record as “large reduction in the magnitude of the generated membrane potential”. Also, the chromatographic logD in series [4] was 4.5. Besides, the AUC(0-inf) in series [6] (setting [10]) was determined as 12.5 µM·h. The clearance in [6] (setting [11]) came to 16.3 mL/min/kg. Moreover, in series [6] (setting [12]), the half-life is 2.4 h. Also, the Vd in series [6] (setting [12]) was 2.6 L/kg. Also, the “Adverse reactions after IP administration” value in [8] is “No adverse reactions or compound-related side effects were observed”. In addition, the Plasma concentration in series [8] (between 7.5 and 24 h post-dose) lay in the range of 200 to 500 ng/mL; in series [8] (initial 7.5 h post-dose), 3000 to 4000 ng/mL. Moreover, the “MIC of colonies that grew after 72 h in the presence of NCL195” value in the series with S. aureus Xen29 [1] (10^5 c.f.u. Xen29 in broth with 1×, 2× and 4× MIC) is 1 × MIC. In addition, the “Resistance (fold MIC) over serial passage” value in the series with S. aureus Xen29 [1] (24 daily sequential cultures) is listed as ≤ 1 × MIC.
